Measurements: patent US20250361227A1, “INHIBITORS OF FLI1 AND ERG” (UNIVERSITY OF VIRGINIA PATENT FOUNDATION, priority 2022, published 2025)
Where two headings read alike, the source gives them in different places. Values belong to the molecule of their own block, whether it stands above or below them.

Legend:
[1] = biological target: T1, ERG auto-inhibited construct (ERGi, 272-388) (Homo sapiens, UniProt P11308); test: ERGi-DNA fluorescence polarization assay; type: binding
T1 construct: made in house
T1 sequence (P11308 272-388 isoform P11308-1): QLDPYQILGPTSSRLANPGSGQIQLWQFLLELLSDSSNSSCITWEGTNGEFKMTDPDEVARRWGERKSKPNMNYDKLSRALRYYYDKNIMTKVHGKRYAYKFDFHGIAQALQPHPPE
From the text: (§1) The constructs of ERG which retain full auto-inhibition were previously delineated (17). Fluorescence polarization-based assays for DNA binding were then developed, which were used for screening. In addition to the auto-inhibited form of ERG, it was important to also have an assay using its Ets domain, i.e., the uninhibited form of the protein, to compare action of compounds. Compounds which are active against the auto-inhibited form of the protein but have little or no effect on the uninhibited form were sought, indicating their binding is mediated by the non-conserved auto-inhibitory modules rather than the highly conserved Ets domain. […] Fragment screening is an alternative approach that has gained a great deal of favor in the pharma industry recently that employs relatively small molecules (22). […] The auto-inhibited construct was screened first with a dose dependent screen of actives with ERGi using fluorescein- and Texas Red-DNA and then the positive hits were counter-screened with the ERG Ets domain, specifically a screen of actives with ERGu, the latter screen serving to remove compounds which bind to the conserved Ets domain or to DNA, which left 26 compounds which inhibit the auto-inhibited construct of ERG binding to DNA but not the uninhibited ERG (the Ets domain) binding to DNA. ERGi is the auto-inhibited construct of ERG (272-388) and ERGu is the uninhibited DNA binding domain construct of ERG (289-378). […] The IC50 of the validated hits was 0.6-7 mM. […] Importantly, chemical shift changes upon compound addition are observed in the ^15N-^1H HSQC NMR spectra of ERG for amino acids located in the auto-inhibitory modules of ERG, indicating they do interact with these regions of the protein. It is critical to also develop assays for other ETS family members to assess the specificity of action of the compounds identified in the screen, so auto-inhibited constructs were expressed and assays were developed for five other ETS family members and assays for additional members of the family were also developed.
(§2) Using a standard medicinal chemistry approach, further optimization of the fragment hits were pursued. The specificity of parent fragments and their optimized derivatives with 5 additional Ets proteins which are representatives of 5 additional sub-families, were evaluated, as shown in Table 2. […] NA in Table 2 represents no activity up to the 2000 μM maximum concentration. >number in Table 2 represents some activity at highest concentrations so data fit with a lower bound to obtain an estimate of IC50.

[2] = biological target: T2, ETV6 (TEL) (Homo sapiens, UniProt P41212); test: Fluorescence polarization DNA binding assay, auto-inhibited ETV6; conditions: auto-inhibited construct; NA = no activity up to 2000 μM; >number = estimate from fit with lower bound
T2 sequence (P41212 1-452): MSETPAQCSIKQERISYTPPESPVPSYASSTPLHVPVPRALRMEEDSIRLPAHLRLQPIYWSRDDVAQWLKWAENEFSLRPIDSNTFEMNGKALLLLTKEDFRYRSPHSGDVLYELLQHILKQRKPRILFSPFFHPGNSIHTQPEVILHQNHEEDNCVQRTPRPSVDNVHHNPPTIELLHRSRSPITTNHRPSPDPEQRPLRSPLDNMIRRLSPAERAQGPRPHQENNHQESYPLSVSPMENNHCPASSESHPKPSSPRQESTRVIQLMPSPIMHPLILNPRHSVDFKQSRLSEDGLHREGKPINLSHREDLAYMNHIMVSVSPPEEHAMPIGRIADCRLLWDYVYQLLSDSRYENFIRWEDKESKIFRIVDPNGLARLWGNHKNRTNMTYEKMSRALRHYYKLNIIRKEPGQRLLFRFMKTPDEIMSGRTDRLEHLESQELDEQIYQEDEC
From the text: as §1, §2

[3] = biological target: T3, ELK1 (Homo sapiens, UniProt P19419); test: Fluorescence polarization DNA binding assay, auto-inhibited ELK1; conditions: auto-inhibited construct; NA = no activity up to 2000 μM; >number = estimate from fit with lower bound
T3 sequence (P19419 1-428): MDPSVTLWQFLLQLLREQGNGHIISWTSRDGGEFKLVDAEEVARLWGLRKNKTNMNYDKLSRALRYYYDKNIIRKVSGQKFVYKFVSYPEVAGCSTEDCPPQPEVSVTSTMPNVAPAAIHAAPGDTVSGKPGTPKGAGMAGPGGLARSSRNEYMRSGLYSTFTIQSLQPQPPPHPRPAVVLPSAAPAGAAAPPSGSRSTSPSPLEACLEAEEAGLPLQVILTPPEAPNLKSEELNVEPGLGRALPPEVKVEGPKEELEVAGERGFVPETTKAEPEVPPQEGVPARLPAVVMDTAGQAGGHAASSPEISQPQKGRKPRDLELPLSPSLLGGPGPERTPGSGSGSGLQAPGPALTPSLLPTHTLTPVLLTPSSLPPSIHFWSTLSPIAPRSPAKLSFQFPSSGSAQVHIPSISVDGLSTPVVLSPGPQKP
From the text: as §1, §2

[4] = biological target: T4, ELF3 (Homo sapiens, UniProt P78545); test: Fluorescence polarization DNA binding assay, auto-inhibited ELF3; conditions: auto-inhibited construct; NA = no activity up to 2000 μM; >number = estimate from fit with lower bound
T4 sequence (P78545 1-371): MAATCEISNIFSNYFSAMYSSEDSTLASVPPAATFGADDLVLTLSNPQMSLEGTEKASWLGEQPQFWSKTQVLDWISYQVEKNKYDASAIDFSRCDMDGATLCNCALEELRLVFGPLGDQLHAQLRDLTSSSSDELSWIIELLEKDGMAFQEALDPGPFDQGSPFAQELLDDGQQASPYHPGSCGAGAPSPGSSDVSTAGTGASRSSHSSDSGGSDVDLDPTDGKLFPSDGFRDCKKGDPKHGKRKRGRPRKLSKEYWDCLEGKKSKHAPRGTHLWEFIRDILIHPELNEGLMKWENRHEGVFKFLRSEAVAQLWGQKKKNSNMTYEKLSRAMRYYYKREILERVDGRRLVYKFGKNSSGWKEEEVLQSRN
From the text: as §1, §2

[5] = biological target: Spi1 (PU.1) (Homo sapiens, UniProt P17947); test: Fluorescence polarization DNA binding assay, auto-inhibited PU.1; conditions: auto-inhibited construct; NA = no activity up to 2000 μM; >number = estimate from fit with lower bound
From the text: as §1, §2

[6] = biological target: T5, Ets1 (Homo sapiens, UniProt P14921); test: Fluorescence polarization DNA binding assay, auto-inhibited Ets-1; conditions: auto-inhibited construct; NA = no activity up to 2000 μM; >number = estimate from fit with lower bound
T5 sequence (P14921 1-441): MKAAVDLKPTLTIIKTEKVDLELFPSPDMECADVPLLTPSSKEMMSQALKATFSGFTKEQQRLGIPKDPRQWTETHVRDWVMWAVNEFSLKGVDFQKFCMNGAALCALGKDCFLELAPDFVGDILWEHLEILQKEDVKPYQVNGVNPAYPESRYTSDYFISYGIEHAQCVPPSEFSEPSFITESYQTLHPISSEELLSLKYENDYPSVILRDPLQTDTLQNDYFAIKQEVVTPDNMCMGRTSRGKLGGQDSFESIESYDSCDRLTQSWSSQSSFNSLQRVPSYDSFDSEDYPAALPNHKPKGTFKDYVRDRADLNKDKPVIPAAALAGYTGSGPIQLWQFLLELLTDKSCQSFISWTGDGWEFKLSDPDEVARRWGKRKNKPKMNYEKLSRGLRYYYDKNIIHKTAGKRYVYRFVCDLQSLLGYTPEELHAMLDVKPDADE
From the text: as §1, §2

[7] = biological target: T6, ERG isolated Ets domain (ERGu, 289-378) (Homo sapiens, UniProt P11308); test: Fluorescence polarization DNA binding assay, uninhibited ERG; conditions: FP DNA binding, NA = no activity up to 2000 μM, >number = estimate from fit with lower bound
T6 construct: made in house
T6 sequence (P11308 289-378 isoform P11308-1): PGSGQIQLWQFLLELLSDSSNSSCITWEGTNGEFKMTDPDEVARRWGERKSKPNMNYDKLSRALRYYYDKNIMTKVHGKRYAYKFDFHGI
From the text: as §1, §2

[8] = biological target: DNA; conditions: ITC, ERG construct binding to DNA; ±SE in cell beside; cited from earlier work
[9] = optimized fragment analogs, values in text, read-out: IC50
[10] = FP DNA binding, maximum concentration 2000 μM, read-out: IC50 ERG Auto-inhibited construct

IC50 [1, 9]: 63 µM
Molecule: Cc1ccc(-c2nc3ccccc3o2)cc1C [KK-19-109]

IC50 [2]: > 2000 µM
IC50 [1, 10]: 588 µM
IC50 [3]: > 4500 µM
IC50 [4]: > 2000 µM
IC50 [5]: > 2000 µM
IC50 [6]: > 4000 µM
IC50 [7]: > 2000 µM
Molecule: Cc1ccc(OCC(=O)Nc2cccc(O)c2)cc1 [Compound 6H6]

IC50 [2]: > 2500 µM
IC50 [1, 10]: 965 µM
IC50 [3]: > 2100 µM
IC50 [4]: 1830 µM
IC50 [5]: > 4100 µM
IC50 [6]: > 2000 µM
IC50 [7]: > 2000 µM
Molecule: Nc1ccc(Cl)c(-c2nc3ccccc3o2)c1 [Compound 9B5]

IC50 [2]: > 2000 µM
IC50 [3]: > 2000 µM
IC50 [4]: > 2000 µM
IC50 [5]: > 2000 µM
IC50 [6]: > 2000 µM
IC50 [7]: > 2000 µM
Molecule: COc1cccc2cc(C(C)=O)oc12 [Compound 9F1]

IC50 [2]: > 4400 µM
IC50 [1, 10]: 837 µM
IC50 [3]: > 2500 µM
IC50 [4]: 1740 µM
IC50 [5]: > 3300 µM
IC50 [6]: > 2600 µM
IC50 [7]: > 2000 µM
Molecule: CCNc1cc(-c2nc3ccccc3o2)ccc1C [KK-23-07]

IC50 [2]: > 2000 µM
IC50 [1, 9]: 88 µM
IC50 [3]: > 4750 µM
IC50 [4]: > 2000 µM
IC50 [5]: > 2000 µM
IC50 [6]: > 3600 µM
IC50 [7]: > 3000 µM
Molecule: COc1cc(OCC(=O)Nc2cccc(O)c2)ccc1C [KK-22-93]

B1: 289-388: ERG truncation construct, residues 289-388 (protein, UniProt P11308 289-388, looked up, fragment)
chain: QLDPYQILGPTSSRLANPGSGQIQLWQFLLELLSDSSNSSCITWEGTNGEFKMTDPDEVARRWGERKSKPNMNYDKLSRALRYYYDKNIMTKVHGKRYAY
Kd [8]: 0.041 µM

B2: 272-378: ERG truncation construct, residues 272-378 (protein, UniProt P11308 272-378, looked up, fragment)
chain: AAQPSPSTVPKTEDQRPQLDPYQILGPTSSRLANPGSGQIQLWQFLLELLSDSSNSSCITWEGTNGEFKMTDPDEVARRWGERKSKPNMNYDKLSRALRYYYDKNIM
Kd [8]: 0.033 µM

B3: 210-462: ERG truncation construct, residues 210-462 (protein, UniProt P11308 210-462, looked up, fragment)
chain: KALQNSPRLMHARNTGGAAFIFPNTSVYPEATQRITTRPDLPYEPPRRSAWTGHGHPTPQSKAAQPSPSTVPKTEDQRPQLDPYQILGPTSSRLANPGSGQIQLWQFLLELLSDSSNSSCITWEGTNGEFKMTDPDEVARRWGERKSKPNMNYDKLSRALRYYYDKNIMTKVHGKRYAYKFDFHGIAQALQPHPPESSLYKYPSDLPYMGSYHAHPQKMNFVAPHPPALPVTSSSFFAAPNPYWNSPTGGIYP
Kd [8]: 0.104 µM

B4: 289-412: ERG truncation construct, residues 289-412 (protein, UniProt P11308 289-412, looked up, fragment)
chain: QLDPYQILGPTSSRLANPGSGQIQLWQFLLELLSDSSNSSCITWEGTNGEFKMTDPDEVARRWGERKSKPNMNYDKLSRALRYYYDKNIMTKVHGKRYAYKFDFHGIAQALQPHPPESSLYKYP
Kd [8]: 0.051 µM

B5: 272-412: ERG truncation construct, residues 272-412 (protein, UniProt P11308 272-412, looked up, fragment)
chain: AAQPSPSTVPKTEDQRPQLDPYQILGPTSSRLANPGSGQIQLWQFLLELLSDSSNSSCITWEGTNGEFKMTDPDEVARRWGERKSKPNMNYDKLSRALRYYYDKNIMTKVHGKRYAYKFDFHGIAQALQPHPPESSLYKYP
Kd [8]: 0.101 µM

B6: 272-388: the auto-inhibited construct of ERG (272-388) (protein, UniProt P11308 272-388, looked up, fragment)
chain: AAQPSPSTVPKTEDQRPQLDPYQILGPTSSRLANPGSGQIQLWQFLLELLSDSSNSSCITWEGTNGEFKMTDPDEVARRWGERKSKPNMNYDKLSRALRYYYDKNIMTKVHGKRYAY
Kd [8]: 0.176 µM

B7: 289-378: the uninhibited DNA binding domain construct of ERG (289-378) (protein, UniProt P11308 289-378, looked up, fragment)
chain: QLDPYQILGPTSSRLANPGSGQIQLWQFLLELLSDSSNSSCITWEGTNGEFKMTDPDEVARRWGERKSKPNMNYDKLSRALRYYYDKNIM
Kd [8]: 0.037 µM

B8: 1-462: ERG construct, residues 1-462 (protein, UniProt P11308 1-462, looked up, fragment)
chain: MASTIKEALSVVSEDQSLFECAYGTPHLAKTEMTASSSSDYGQTSKMSPRVPQQDWLSQPPARVTIKMECNPSQVNGSRNSPDECSVAKGGKMVGSPDTVGMNYGSYMEEKHMPPPNMTTNERRVIVPADPTLWSTDHVRQWLEWAVKEYGLPDVNILLFQNIDGKELCKMTKDDFQRLTPSYNADILLSHLHYLRETPLPHLTSDDVDKALQNSPRLMHARNTGGAAFIFPNTSVYPEATQRITTRPDLPYEPPRRSAWTGHGHPTPQSKAAQPSPSTVPKTEDQRPQLDPYQILGPTSSRLANPGSGQIQLWQFLLELLSDSSNSSCITWEGTNGEFKMTDPDEVARRWGERKSKPNMNYDKLSRALRYYYDKNIMTKVHGKRYAYKFDFHGIAQALQPHPPESSLYKYPSDLPYMGSYHAHPQKMNFVAPHPPALPVTSSSFFAAPNPYWNSPTGGIYP
Kd [8]: 0.121 µM
